This is an account of results in ChEMBL document CHEMBL1201862, “PubChem BioAssay data set” (2004).

Among the test systems are TK-10; HOP-62; 786-0; NCI/ADR-RES; U-251; OVCAR-3; M14; SN12C; NCI-H522; SK-MEL-28; HL-60; HCC 2998; OVCAR-8; OVCAR-5; SF-295; LOX IMVI; SNB-19; A498; HOP-92; UO-31.
What all share (experiment): DTP human tumour cell line panel, 48 h

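96-well plates; 48 h exposure; 5 concentrations. Endpoints by linear interpolation between flanking doses. Not reached: highest tested concentration assigned. GI50 is the concentration that inhibits growth by half.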 Activity calls are given as the source filed them. No stated cut-off is given here; in the data, active = GI50 up to about 1.1 µM and inactive = higher. Where only a bound is given, the exact number is not on record here.

With `Cc1cc2c(cc1Cl)SC(NNC(=O)c1ccncc1)=NS2(=O)=O`, the GI50 in the experiment with TK-10, with HOP-62, in the experiment on 786-0, in the experiment with NCI/ADR-RES, in the experiment with U-251 and in the experiment with OVCAR-3 was > 10 µM (inactive) in each case. Moreover, the GI50 in the experiment with M14, with SN12C, in the experiment on NCI-H522, in the experiment on SK-MEL-28, in the experiment on HL-60 and in the experiment on HCC 2998 was > 10 µM (inactive) throughout. In addition, the GI50 in the experiment with OVCAR-8, with OVCAR-5, in the experiment on SF-295, with LOX IMVI, in the experiment with SNB-19 and in the experiment with A498 was > 10 µM (inactive) in each case.

As for `N#CC(C#N)=c1c(=O)c2c3ccccc3cc3cccc1c32`, the GI50 in the experiment on HOP-62 was 29 µM (inactive); with 786-0, 35.2 µM (inactive); in the experiment with NCI/ADR-RES, > 100 µM (inactive); with U-251 it was > 100 µM (inactive); in the experiment on OVCAR-3, > 100 µM (inactive); with M14 it was > 100 µM (inactive). Further, the GI50 in the experiment on SN12C was > 100 µM (inactive); with SK-MEL-28, 89.9 µM (inactive); in the experiment on HL-60, 68.1 µM (inactive); with HCC 2998, > 100 µM (inactive); in the experiment with OVCAR-5, > 100 µM (inactive); in the experiment with LOX IMVI, > 100 µM (inactive). Moreover, the GI50 in the experiment with SNB-19, in the experiment on HOP-92 and with A498 was > 100 µM (inactive) in each case.

On to `CCCC(=O)Nc1cc([N+](=O)[O-])c([N+](=O)[O-])cc1OC`, for which the GI50 in the experiment on TK-10 is 17.2 µM (inactive); with HOP-62, 12.6 µM (inactive); with 786-0 it was 26.3 µM (inactive); in the experiment with NCI/ADR-RES it was 39.5 µM (inactive); in the experiment with U-251 it was 16.3 µM (inactive); in the experiment with OVCAR-3, 14.6 µM (inactive). Further, the GI50 in the experiment on M14 is 12.8 µM (inactive); with SN12C it was 15.6 µM (inactive); with UO-31, 1.75 µM (inactive); with NCI-H522, 12.9 µM (inactive); in the experiment on SK-MEL-28, 17 µM (inactive); in the experiment on HL-60, 13.1 µM (inactive). The GI50 with OVCAR-8 is 16.3 µM (inactive); in the experiment on OVCAR-5, 32.5 µM (inactive); with SF-295, 10.1 µM (inactive); with LOX IMVI, 2.79 µM (inactive); with SNB-19 it was 17 µM (inactive); with A498, 15.7 µM (inactive).

Turning to `Cn1c(=O)c2nc(CS(=O)(=O)Cc3nc4c(=O)n(C)c(=O)n(C)c4[nH]3)[nH]c2n(C)c1=O`, the GI50 in the experiment on TK-10 was > 100 µM (inactive); with HOP-62, > 100 µM (inactive); in the experiment with 786-0, > 100 µM (inactive); in the experiment with NCI/ADR-RES it was > 100 µM (inactive); in the experiment with U-251, 33.2 µM (inactive); in the experiment on OVCAR-3, > 100 µM (inactive). Further, the GI50 in the experiment with M14, with SN12C, with UO-31, in the experiment with NCI-H522, in the experiment on SK-MEL-28 and in the experiment on HL-60 was > 100 µM (inactive) each time. The GI50 with OVCAR-8, in the experiment on OVCAR-5, in the experiment with SF-295, in the experiment on LOX IMVI, in the experiment on SNB-19 and with A498 was > 100 µM (inactive) throughout.

In the case of `CC(C)[C@@H](C)[C@@]1(C)C[C@@H]1[C@@H](C)[C@H]1CC[C@@H]([C@@H]2CC=C3C[C@@H](O)CC[C@]3(C)C2=O)[C@]1(C)CCO`, the GI50 with TK-10 is 11.5 µM (inactive); with HOP-62, 17.3 µM (inactive); with 786-0, 5.53 µM (inactive); in the experiment on NCI/ADR-RES, 13.4 µM (inactive); in the experiment with U-251 it was 11 µM (inactive); in the experiment with OVCAR-3 it was 12.8 µM (inactive). Also, the GI50 with SN12C was 12.9 µM (inactive); with UO-31, 15.2 µM (inactive); in the experiment on NCI-H522 it was 6.9 µM (inactive); in the experiment on SK-MEL-28, 7.53 µM (inactive); in the experiment with HL-60 it was 2.11 µM (inactive); in the experiment with HCC 2998, 4.2 µM (inactive). Further, the GI50 in the experiment with OVCAR-8 was 12.7 µM (inactive); in the experiment on OVCAR-5, 11.6 µM (inactive); in the experiment with SF-295 it was 9.2 µM (inactive); in the experiment on LOX IMVI, 4.57 µM (inactive); with SNB-19, 12.6 µM (inactive); with A498 it was 15.3 µM (inactive).

With `COc1ccc(C2=NN=C3C(c4ccccc4)=Nc4ccccc4N3C2)cc1`, the GI50 is 23.5 µM (inactive) with TK-10; 14.8 µM (inactive) with HOP-62; 10.6 µM (inactive) with 786-0; 10.8 µM (inactive) in the experiment with NCI/ADR-RES; 14.5 µM (inactive) with U-251; 3.06 µM (inactive) in the experiment on OVCAR-3. Further, the GI50 in the experiment on M14 was 15.5 µM (inactive); with SN12C it was 27.8 µM (inactive); in the experiment on UO-31, 6.46 µM (inactive); in the experiment with SK-MEL-28 it was 12 µM (inactive); in the experiment with HL-60, 7.55 µM (inactive); in the experiment on HCC 2998, 46.8 µM (inactive). For the same compound, the GI50 was 54.2 µM (inactive) in the experiment on OVCAR-5; 16.9 µM (inactive) in the experiment with LOX IMVI; 23.8 µM (inactive) with SNB-19; 85.9 µM (inactive) with HOP-92; 40.1 µM (inactive) in the experiment on A498.

For `CCOC(=O)CCC(NC(=O)c1ccc(CNc2nc3ccccc3nc2C(=O)OCC)cc1)C(=O)OCC` (stereo unspecified), the GI50 was > 100 µM (inactive) in the experiment on TK-10; > 100 µM (inactive) in the experiment on HOP-62; > 100 µM (inactive) with 786-0; > 100 µM (inactive) in the experiment on NCI/ADR-RES; 21.8 µM (inactive) in the experiment on U-251; 78.7 µM (inactive) in the experiment on OVCAR-3. The GI50 was > 100 µM (inactive) in the experiment on M14; > 100 µM (inactive) with SN12C; 44.1 µM (inactive) in the experiment with UO-31; > 100 µM (inactive) with NCI-H522; > 100 µM (inactive) in the experiment on SK-MEL-28; > 100 µM (inactive) with OVCAR-8. Also, the GI50 with OVCAR-5 is > 100 µM (inactive); in the experiment on SF-295 it was > 100 µM (inactive); in the experiment on LOX IMVI, > 100 µM (inactive); in the experiment with SNB-19, 23.7 µM (inactive); in the experiment on HOP-92, > 100 µM (inactive); in the experiment with A498, > 100 µM (inactive).

In the case of `C1=C(c2ccccc2)NC2=N[C@H]3CCCC[C@@H]3N2C1c1ccccc1` (stereo partly specified), the GI50 in the experiment on TK-10 is 10.4 µM (inactive); with 786-0 it was 16.9 µM (inactive); in the experiment with NCI/ADR-RES it was 12 µM (inactive); in the experiment with U-251, 13.4 µM (inactive); in the experiment with OVCAR-3, 13.1 µM (inactive); with M14 it was 12.9 µM (inactive). The GI50 in the experiment with UO-31 was 12.2 µM (inactive); in the experiment with SK-MEL-28, 14.3 µM (inactive); in the experiment on HL-60 it was 10.3 µM (inactive); in the experiment with HCC 2998, 14.4 µM (inactive); with OVCAR-8, 13.6 µM (inactive); in the experiment with OVCAR-5 it was 13.5 µM (inactive). Also, the GI50 in the experiment with SF-295 was 13 µM (inactive); with LOX IMVI, 15.3 µM (inactive); in the experiment on SNB-19, 14.6 µM (inactive); in the experiment on HOP-92, 12.7 µM (inactive); with A498 it was 16.4 µM (inactive).

As to `CCOC(=O)CC(=O)C(=O)NN=C1NCCN1`, the GI50 in the experiment on TK-10, with HOP-62, with 786-0, in the experiment on NCI/ADR-RES, with U-251 and in the experiment on OVCAR-3 was > 100 µM (inactive) throughout. For the same compound, the GI50 in the experiment on M14, in the experiment with SN12C, in the experiment with UO-31, with NCI-H522, in the experiment on SK-MEL-28 and with HL-60 was > 100 µM (inactive) each time. Besides, the GI50 in the experiment with HCC 2998, in the experiment with OVCAR-8, in the experiment on OVCAR-5, in the experiment with SF-295, with LOX IMVI and with SNB-19 was > 100 µM (inactive) throughout. In addition, in the experiment with HOP-92, the GI50 is > 100 µM (inactive).

Turning to `CCOc1cc2c(cc1O)CC[C@@H]1[C@@H]2CC[C@]2(C)C(OS(=O)OC3CC[C@@H]4[C@H]5CCc6cc(O)c(OCC)cc6[C@@H]5CC[C@@]34C)CC[C@@H]12` (stereo partly specified), the GI50 was 19.7 µM (inactive) in the experiment with TK-10; 0.887 µM (active) in the experiment with HOP-62; 0.583 µM (active) with 786-0; 0.441 µM (active) in the experiment with NCI/ADR-RES; 0.33 µM (active) in the experiment with U-251; 0.313 µM (active) in the experiment with OVCAR-3. Moreover, the GI50 is 0.592 µM (active) in the experiment with M14; 1.68 µM (inactive) in the experiment on SN12C; 5.48 µM (inactive) in the experiment with UO-31; 0.6 µM (active) in the experiment on SK-MEL-28; 0.173 µM (active) with HL-60; 16 µM (inactive) with HCC 2998. Moreover, the GI50 is 1.38 µM (inactive) in the experiment with OVCAR-8; 21.4 µM (inactive) in the experiment with OVCAR-5; 0.982 µM (active) in the experiment with SF-295; 0.752 µM (active) in the experiment with LOX IMVI; 2.64 µM (inactive) with SNB-19; 0.363 µM (active) in the experiment on HOP-92. Besides, in the experiment on A498, the GI50 was 13.7 µM (inactive).

Consider `c1csc(-c2ccc(-c3ccc(-c4cccs4)s3)s2)c1`, for which the GI50 in the experiment on TK-10, in the experiment with HOP-62, in the experiment on 786-0, in the experiment on NCI/ADR-RES, in the experiment on U-251 and in the experiment on OVCAR-3 was > 100 µM (inactive) each time. Moreover, the GI50 with M14, in the experiment with SN12C, in the experiment with UO-31, with NCI-H522, with SK-MEL-28 and in the experiment on HL-60 was > 100 µM (inactive) throughout. For the same compound, the GI50 in the experiment on HCC 2998, in the experiment on OVCAR-8, with OVCAR-5, in the experiment with SF-295, with LOX IMVI and with SNB-19 was > 100 µM (inactive) throughout. In the experiment on A498, the GI50 was > 100 µM (inactive).

As a reminder, the GI50 is the concentration at which growth is held to half of that of the control.
